Each structure is given as a SMILES string.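 Compound exposure: 48 hours, 5 concentrations, 96-well plates. GI50: concentration for 50% inhibition of growth.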 Activity calls are given as the source filed them. Cut-off read from the data, not from the text of the source: active = GI50 up to about 1.1 µM and inactive = higher.

Some test systems named below: SF-268; SNB-75; Malme-3M; SK-MEL-28; UACC-62; T47D; SF-295; OVCAR-4; HCT-116; SK-OV-3; NCI-H226; MOLT-4; BT-549; HT-29; EKVX; DU-145; SW-620; NCI/ADR-RES; MDA-MB-231; OVCAR-8.
Common to all, as to experiment: NCI anticancer screen, dose series, 48 h

As for `C=C(C(=O)O[C@H]1C(=O)C2=C(C)CCC3C(=C)C(=O)O[C@@H]3C2[C@]1(C)O)C1CC[C@]2(C)CCCC(=C)[C@H]2C1` (stereo not given in full), the GI50 was 5.6 µM (inactive) in the experiment on SF-268; 0.327 µM (active) in the experiment on SNB-75; 8.83 µM (inactive) in the experiment with Malme-3M; 5.92 µM (inactive) in the experiment on SK-MEL-28; 1.9 µM (inactive) in the experiment on UACC-62; 4.25 µM (inactive) in the experiment with T47D. Also, the GI50 in the experiment on SF-295 was 15.5 µM (inactive); with OVCAR-4 it was 5.36 µM (inactive); with HCT-116, 3.28 µM (inactive); in the experiment with SK-OV-3, 16.9 µM (inactive); with NCI-H226, 17.1 µM (inactive); in the experiment with MOLT-4, 2.21 µM (inactive). Further, the GI50 in the experiment on BT-549 was 5.04 µM (inactive); in the experiment with HT-29 it was 4.24 µM (inactive); in the experiment on EKVX, 7.98 µM (inactive); in the experiment on DU-145 it was 4.72 µM (inactive); in the experiment on SW-620, 7.46 µM (inactive); with NCI/ADR-RES, 7.38 µM (inactive). Moreover, the GI50 was 5.78 µM (inactive) in the experiment on MDA-MB-231 and 4.36 µM (inactive) with OVCAR-8.
Regarding `CC(C)(C)OC(=O)N1CC(CCl)c2ccc(O)cc21` (stereo not given), the GI50 in the experiment on SF-268 was 1.58 µM (inactive); with SNB-75, 1.39 µM (inactive); in the experiment with Malme-3M, 1.64 µM (inactive); in the experiment with SK-MEL-28, 2.09 µM (inactive); with UACC-62, 2.01 µM (inactive); in the experiment on T47D, 3.03 µM (inactive). The GI50 in the experiment with SF-295 was 3.65 µM (inactive); with OVCAR-4, 0.267 µM (active); in the experiment with HCT-116 it was 2.64 µM (inactive); in the experiment with SK-OV-3 it was 5.05 µM (inactive); in the experiment with NCI-H226, 2.06 µM (inactive); in the experiment with MOLT-4 it was 1.3 µM (inactive). The GI50 in the experiment on BT-549 was 1.97 µM (inactive); with HT-29, 3.15 µM (inactive); with EKVX, 2.75 µM (inactive); with DU-145 it was 0.589 µM (active); in the experiment on SW-620, 2.59 µM (inactive); in the experiment on NCI/ADR-RES, 1.59 µM (inactive). In addition, the GI50 is 2.53 µM (inactive) in the experiment with MDA-MB-231 and 3.59 µM (inactive) with OVCAR-8.
For `CC(=O)Oc1ccc2c(c1)c1c(=O)oc(N(C)C)nc1n2Cc1ccccc1`, the GI50 was 37.1 µM (inactive) in the experiment with SF-268; > 60.3 µM (inactive) in the experiment on SNB-75; 47.9 µM (inactive) in the experiment with Malme-3M; > 100 µM (inactive) in the experiment with SK-MEL-28; 28.4 µM (inactive) with UACC-62; 29.7 µM (inactive) in the experiment with T47D. Moreover, the GI50 in the experiment on SF-295 was 47.9 µM (inactive); with OVCAR-4, 57.9 µM (inactive); in the experiment with HCT-116, 39.9 µM (inactive); in the experiment on SK-OV-3, > 100 µM (inactive); in the experiment with NCI-H226, > 80.4 µM (inactive); in the experiment with MOLT-4 it was 34 µM (inactive). For the same compound, the GI50 was 37.2 µM (inactive) with BT-549; 64 µM (inactive) in the experiment with HT-29; > 100 µM (inactive) in the experiment on EKVX; > 100 µM (inactive) in the experiment on DU-145; 81.1 µM (inactive) with SW-620; 34.8 µM (inactive) with NCI/ADR-RES. Further, the GI50 was > 75.7 µM (inactive) in the experiment with MDA-MB-231 and 57.8 µM (inactive) in the experiment with OVCAR-8.
Consider `O=c1[nH]c2nc[nH]c2c(=O)n1C1CCCCC1`, for which the GI50 with SF-268, with SNB-75, in the experiment with Malme-3M, in the experiment on SK-MEL-28, in the experiment with UACC-62 and in the experiment on T47D was > 100 µM (inactive) throughout. Moreover, the GI50 in the experiment on SF-295, with OVCAR-4, with HCT-116, with SK-OV-3, in the experiment with NCI-H226 and with MOLT-4 was > 100 µM (inactive) each time. The GI50 with BT-549, in the experiment on HT-29, with EKVX, in the experiment with DU-145, in the experiment on SW-620 and in the experiment with NCI/ADR-RES was > 100 µM (inactive) in each case. Also, the GI50 with MDA-MB-231 and in the experiment with OVCAR-8 was > 100 µM (inactive) in each case.
